“And” between values parts separate entries of the source, which are not always exact repeats. Equal values may be shown once. Inconclusive results and toxic doses are left out. How the source made its calls: active means survival T/C of 150% or more; inactive means T/C below 125% in these data.
System: BDF1 mice, P388 leukemia ip, median survival T/C
Test: NCI In Vivo Anticancer Drug Screen. Data for tumor model P388 Leukemia (intraperitoneal) in B6D2F1 (BDF1) mice
Details: endpoint: median survival time, higher = longer survival
Method in brief: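 Mice carrying the transplantable tumour receive compound or vehicle. Survival is followed in each arm, and the treated measure is divided by the vehicle measure.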

[1] = dose: 50.0 mg/kg/injection, schedule: Q04DX003 (ip), vehicle: Klucel (hydroxypropylcellulose) (HPC)
[2] = dose: 100.0 mg/kg/injection, schedule: Q04DX003 (ip), vehicle: Klucel (hydroxypropylcellulose) (HPC)
[3] = dose: 200.0 mg/kg/injection, schedule: Q04DX003 (ip), vehicle: Klucel (hydroxypropylcellulose) (HPC)
[4] = dose: 100.0 mg/kg/injection, schedule: Q01DX009 (ip), vehicle: saline
[5] = dose: 200.0 mg/kg/injection, schedule: Q01DX009 (ip), vehicle: saline
[6] = dose: 400.0 mg/kg/injection, schedule: Q04DX003 (ip), vehicle: Klucel (hydroxypropylcellulose) (HPC)
[7] = dose: 12.5 mg/kg/injection, schedule: Q01DX009 (ip), vehicle: saline with Tween-80
[8] = dose: 25.0 mg/kg/injection, schedule: Q01DX009 (ip), vehicle: saline with Tween-80
[9] = dose: 25.0 mg/kg/injection, schedule: Q04DX003 (ip), vehicle: saline with Tween-80
[10] = dose: 50.0 mg/kg/injection, schedule: Q01DX009 (ip), vehicle: saline with Tween-80
[11] = dose: 50.0 mg/kg/injection, schedule: Q04DX003 (ip), vehicle: saline with Tween-80
[12] = dose: 100.0 mg/kg/injection, schedule: Q04DX003 (ip), vehicle: saline with Tween-80
[13] = dose: 200.0 mg/kg/injection, schedule: Q04DX003 (ip), vehicle: saline with Tween-80

Measured: T/C

COc1ccc2c(c1OC)C1(CCN(C)C)CC(=O)CCC1C=C2 (stereo not given)
inactive: dose: 6.25 mg/kg/injection, schedule: Q01DX009 (ip), vehicle: Klucel (hydroxypropylcellulose) (HPC) 90 % of control | dose: 12.5 mg/kg/injection, schedule: Q01DX009 (ip), vehicle: Klucel (hydroxypropylcellulose) (HPC) 105 % of control | dose: 12.5 mg/kg/injection, schedule: Q04DX003 (ip), vehicle: Klucel (hydroxypropylcellulose) (HPC) 86 % of control | dose: 25.0 mg/kg/injection, schedule: Q01DX009 (ip), vehicle: Klucel (hydroxypropylcellulose) (HPC) 100 % of control | dose: 25.0 mg/kg/injection, schedule: Q04DX003 (ip), vehicle: Klucel (hydroxypropylcellulose) (HPC) 108 % of control | dose: 35.0 mg/kg/injection, schedule: Q01DX009 (ip), vehicle: Klucel (hydroxypropylcellulose) (HPC) 113 % of control | [1] 100 % of control | dose: 55.0 mg/kg/injection, schedule: Q01DX009 (ip), vehicle: Klucel (hydroxypropylcellulose) (HPC) 118 % of control | dose: 80.0 mg/kg/injection, schedule: Q01DX009 (ip), vehicle: Klucel (hydroxypropylcellulose) (HPC) 118 % of control | [2] 95 % of control | dose: 120.0 mg/kg/injection, schedule: Q01DX009 (ip), vehicle: Klucel (hydroxypropylcellulose) (HPC) 100 % of control | dose: 180.0 mg/kg/injection, schedule: Q01DX009 (ip), vehicle: Klucel (hydroxypropylcellulose) (HPC) 108 % of control

[Cl][Hg][CH]1CCCC2OC(C(Cl)(Cl)Cl)OC21 (stereo not given)
inactive: dose: 0.2 mg/kg/injection, schedule: Q01DX001 (ip), vehicle: saline with Tween-80 111 % of control | dose: 0.4 mg/kg/injection, schedule: Q01DX001 (ip), vehicle: saline with Tween-80 109 % of control | dose: 0.78 mg/kg/injection, schedule: Q01DX001 (ip), vehicle: saline with Tween-80 101 % of control | dose: 0.8 mg/kg/injection, schedule: Q01DX001 (ip), vehicle: saline with Tween-80 109 % of control | dose: 1.6 mg/kg/injection, schedule: Q01DX001 (ip), vehicle: saline with Tween-80 116 % of control

CC1(C)c2ccccc2C2C1C1(Cl)C(=O)C2(Cl)C(Cl)=C1Cl (stereo not given)
inactive: dose: 100.0 mg/kg/injection, schedule: Q04DX003 (ip), vehicle: saline sonified 100 % of control | dose: 200.0 mg/kg/injection, schedule: Q04DX003 (ip), vehicle: saline sonified 95 % of control | dose: 400.0 mg/kg/injection, schedule: Q04DX003 (ip), vehicle: saline sonified 100 % of control

Sc1ccc2ccccc2c1
inactive: [1] 104 % of control | dose: 100.0 mg/kg/injection, schedule: Q01DX001 (ip), vehicle: Klucel (hydroxypropylcellulose) (HPC) 104 % of control | [2] 109 % of control | dose: 200.0 mg/kg/injection, schedule: Q01DX001 (ip), vehicle: Klucel (hydroxypropylcellulose) (HPC) 95 % of control | [3] 109 % of control | dose: 400.0 mg/kg/injection, schedule: Q01DX001 (ip), vehicle: Klucel (hydroxypropylcellulose) (HPC) 100 % of control

O=C1C(Cl)=C(Sc2nc3ccccc3s2)C(=O)c2ccccc21
inactive: dose: 50.0 mg/kg/injection, schedule: Q01DX005 (ip), vehicle: saline with Tween-80 112 % of control

CC1=CCCC1
inactive: [4] 118 % of control | dose: 100.0 mg/kg/injection, schedule: Q04DX003 (ip), vehicle: saline 113 % of control | [5] 118 % of control | dose: 200.0 mg/kg/injection, schedule: Q04DX003 (ip), vehicle: saline 104 % of control | dose: 400.0 mg/kg/injection, schedule: Q01DX009 (ip), vehicle: saline 118 % of control | dose: 400.0 mg/kg/injection, schedule: Q04DX003 (ip), vehicle: saline 104 % of control

CC(C)(C)c1ccc(S(=O)[O][Sn]([CH3])([CH3])[O]S(=O)c2ccc(C(C)(C)C)cc2)cc1 (stereo not given)
inactive: dose: 12.5 mg/kg/injection, schedule: Q01DX001 (ip), vehicle: Klucel (hydroxypropylcellulose) (HPC) 110 % of control | dose: 25.0 mg/kg/injection, schedule: Q01DX001 (ip), vehicle: Klucel (hydroxypropylcellulose) (HPC) 113 % of control | dose: 50.0 mg/kg/injection, schedule: Q01DX001 (ip), vehicle: Klucel (hydroxypropylcellulose) (HPC) 116 % of control

COC(OC)C1=C(Cl)C(Cl)=C(Cl)/C1=N\Nc1ccccc1
inactive: dose: 100.0 mg/kg/injection, schedule: Q01DX001 (ip), vehicle: saline with Tween-80 109 % of control | dose: 200.0 mg/kg/injection, schedule: Q01DX001 (ip), vehicle: saline with Tween-80 86 % of control

CC(=O)Nc1c(C)cc(C)cc1C
inactive: [2] 104 % of control | [3] 100 % of control | [6] 118 % of control

Cc1[nH]c(=O)[nH]c(=O)c1NC(=O)c1ccccc1[N+](=O)[O-]
inactive: [7] 95 % of control | dose: 12.5 mg/kg/injection, schedule: Q04DX003 (ip), vehicle: saline with Tween-80 92 % of control | [8] 104 % of control | [9] 92 % of control | [10] 87 % of control | [11] 92 % of control

CC[N+]1(CC)CC[N+]2(CC1)CC[N+]1(CC[N+](CC)(CC)CC1)CC2
inactive: dose: 50.0 mg/kg/injection, schedule: Q01DX009 (ip), vehicle: saline 101 % of control | [4] 101 % of control | [5] 106 % of control

O=C(O)c1cccc(S(=O)(=O)N(CCO)CCO)c1
inactive: [11] 100 % of control | [12] 90 % of control | [13] 95 % of control

Cc1ccc(CCO)c(C)c1
inactive: dose: 50.0 mg/kg/injection, schedule: Q01DX009 (ip), vehicle: Klucel (hydroxypropylcellulose) (HPC) 95 % of control | dose: 100.0 mg/kg/injection, schedule: Q01DX009 (ip), vehicle: Klucel (hydroxypropylcellulose) (HPC) 109 % of control | [2] 100 % of control | dose: 200.0 mg/kg/injection, schedule: Q01DX009 (ip), vehicle: Klucel (hydroxypropylcellulose) (HPC) 90 % of control | [3] 90 % of control | dose: 400.0 mg/kg/injection, schedule: Q01DX009 (ip), vehicle: Klucel (hydroxypropylcellulose) (HPC) 113 % of control | [6] 100 % of control

Cc1ccc(CC2NC(=O)NC2=O)cc1 (stereo not given)
inactive: dose: 6.25 mg/kg/injection, schedule: Q01DX009 (ip), vehicle: saline with Tween-80 104 % of control | [7] 88 % of control and 99 % of control | [8] 90 % of control and 98 % of control | [10] 98 % of control and 120 % of control | [11] 122 % of control | dose: 100.0 mg/kg/injection, schedule: Q01DX009 (ip), vehicle: saline with Tween-80 87 % of control and 118 % of control | [12] 122 % of control | dose: 200.0 mg/kg/injection, schedule: Q01DX009 (ip), vehicle: saline with Tween-80 111 % of control | [13] 105 % of control | dose: 400.0 mg/kg/injection, schedule: Q01DX009 (ip), vehicle: saline with Tween-80 96 % of control | dose: 400.0 mg/kg/injection, schedule: Q04DX003 (ip), vehicle: saline with Tween-80 105 % of control

COCCCNP(=S)(N1CC1)N1CC1
active: dose: 16.5 mg/kg/injection, schedule: Q04DX003 (ip), vehicle: saline with Tween-80 163 % of control and 195 % of control | [9] 181 % of control and 218 % of control
inactive: dose: 37.5 mg/kg/injection, schedule: Q04DX003 (ip), vehicle: saline with Tween-80 104 % of control and 109 % of control

O=C(C(=O)C(Br)Br)C(Br)Br
inactive: dose: 6.25 mg/kg/injection, schedule: Q01DX009 (ip), vehicle: DMSO 97 % of control

Reference: PubChem BioAssay AID328 (DTP/NCI, 2004)
